pKd: −log10 of the molar value. Read-outs that look alike come from different tables or passages of the source.
Legend:
Assay type in all cases: binding
[1] = tested on: T1, 3×FLAG–SGK3-(1–162) R90A PX domain; assay: ITC, SGK3 PX domain R90A
T1 construct: 3×FLAG–SGK3-(1–162) R90A PX domain (right panel); host or cells: E. coli BL21-CodonPlus (DE3)-RIL (from general methods, not tied expressly to this protein)
Experimental: (§1) ITC experiments were carried out on a Microcal VP-ITC. A series of injections of peptide were made into an isolated chamber containing the protein at a constant temperature of 30°C. Heat changes within the cell were monitored during each injection of peptide and recorded as the total heat change per second over time. A binding isotherm was then fitted to data and expressed as the heat change per mol of peptide against the peptide/protein ratio. Injectant was PtdIns and PtdIns(3)P (Echelon) dissolved in buffer (50 mM Hepes, pH 7.4, and 150 mM NaCl). […] Data were analysed using Origin 7.0 with the Microcal software patch installed. […]
(§2) Figure 5 SGK3 binds to PtdIns(3)P via its PX domain (A) ITC was performed by gradually titrating 0.5 mM PtdIns(3)P into the reaction chamber containing wild-type 3×FLAG–SGK3-(1–162) PX domain (left panel) or mutant 3×FLAG–SGK3-(1–162) R50A PX domain (middle panel) and 3×FLAG–SGK3-(1–162) R90A PX domain (right panel). […] Kd were calculated using Origin 7.0 with ITC data analysis disc program. (B) The ability of the indicated GST fusion proteins to bind various phosphoinositides was analysed. […] The membranes were washed and the PX domain protein bound to the membrane by virtue of its interaction with lipid was detected using by using HRP-conjugated anti-FLAG antibodies (SGK3 PX domain) or anti-GST (PH domains).

[2] = biological target: T2, 3×FLAG–SGK3-(1–162) PX domain wild-type (Homo sapiens, UniProt Q96BR1); assay: ITC, wild-type SGK3 PX domain; settings: 30°C
T2 construct: reaction chamber containing wild-type 3×FLAG–SGK3-(1–162) PX domain; host or cells: E. coli BL21-CodonPlus (DE3)-RIL (from general methods, not tied expressly to this protein)
T2 sequence (Q96BR1 1-162): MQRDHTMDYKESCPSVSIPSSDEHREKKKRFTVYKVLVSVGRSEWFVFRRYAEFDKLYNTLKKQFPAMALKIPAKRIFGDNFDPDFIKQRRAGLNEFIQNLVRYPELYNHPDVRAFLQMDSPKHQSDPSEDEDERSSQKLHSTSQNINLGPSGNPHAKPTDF
Experimental: as §1, §2

[3] = tested on: T3, 3×FLAG–SGK3-(1–162) R50A PX domain; assay: ITC, SGK3 PX domain R50A
T3 construct: mutant 3×FLAG–SGK3-(1–162) R50A PX domain (middle panel); host or cells: E. coli BL21-CodonPlus (DE3)-RIL (from general methods, not tied expressly to this protein)
Experimental: as §1, §2

binding to PX domain with Arg90 to alanine mutation [1]: abolished binding | pKd ([2]; read-out: Kd1): 5.74 | pKd ([2]; read-out: Kd2): 5.28 | binding to PX domain with Arg50 to alanine mutation [3]: abolished binding
Substance: PtdIns(3)P
